In PubChem BioAssay (NCI):
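Results reflect a 48-hour exposure of cells in 96-well plates to compound at five concentrations. The concentration for 50% growth inhibition is given as GI50. TGI: concentration producing complete growth inhibition.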

Key:
Assay in all cases: growth of human tumour cells (NCI), 48 h
HCC-2998 colon = tested on: HCC-2998 colon
K-562 leukemia = tested on: K-562 leukemia
LOX IMVI melanoma = tested on: LOX IMVI melanoma
M14 melanoma = tested on: M14 melanoma
MCF7 breast = tested on: MCF7 breast
SF-268 CNS = tested on: SF-268 CNS
SF-295 CNS = tested on: SF-295 CNS
SK-MEL-5 melanoma = tested on: SK-MEL-5 melanoma
UO-31 renal = tested on: UO-31 renal
HT29 colon = tested on: HT29 colon

| Compound | TGI (HCC-2998 colon) | TGI (K-562 leukemia) | TGI (LOX IMVI melanoma) | TGI (M14 melanoma) | TGI (MCF7 breast) | TGI (SF-268 CNS) | TGI (SF-295 CNS) | TGI (SK-MEL-5 melanoma) | TGI (UO-31 renal) | GI50 (HCC-2998 colon) | GI50 (HT29 colon) | TGI (HT29 colon) | GI50 (K-562 leukemia) | GI50 (LOX IMVI melanoma) | GI50 (M14 melanoma) | GI50 (MCF7 breast) | GI50 (SF-268 CNS) | GI50 (SF-295 CNS) | GI50 (SK-MEL-5 melanoma) | GI50 (UO-31 renal) |
| --- | --- | --- | --- | --- | --- | --- | --- | --- | --- | --- | --- | --- | --- | --- | --- | --- | --- | --- | --- | --- |
| O=C1C2CC(Cl)C(SSC3CC4C(=O)N(SC(Cl)(Cl)C(Cl)Cl)C(=O)C4CC3Cl)CC2C(=O)N1SC(Cl)(Cl)C(Cl)Cl (centres undefined) | 16.4 µM | 5.01 µM | 3.03 µM | 2.88 µM | 7.67 µM | 3.91 µM | 17.1 µM | 4.55 µM | 4.82 µM | – | – | – | – | – | – | – | – | – | – | – |
| COc1ccccc1C(=O)/C=C/c1cc2cccc(OC)c2[nH]c1=O | 1.3 µM | > 89.1 µM | 0.724 µM | 0.3 µM | 4.12 µM | 2.06 µM | 3.85 µM | 0.843 µM | 1.68 µM | 0.141 µM | < 0.0131 µM | 4.02 µM | < 0.0125 µM | 0.0262 µM | < 0.0131 µM | 0.0358 µM | 0.0935 µM | 0.0256 µM | 0.0374 µM | 0.115 µM |
| CCCCCCCCCCCCc1ccc(C(=O)/C=C/C(=O)O)cc1 | 17.7 µM | 5.74 µM | 2.81 µM | 4.17 µM | 3.3 µM | 8.28 µM | 25.5 µM | 28.7 µM | 3.01 µM | 5.45 µM | 1.81 µM | 4 µM | 2.13 µM | 1.45 µM | 1.79 µM | 1.62 µM | 2.64 µM | 12.5 µM | 14.5 µM | 1.63 µM |
| O=C1CC(=O)N(C2CCCCC2)C(=O)N1c1ccccc1S(=O)(=O)Oc1ccccc1 | > 100 µM | 85.9 µM | 7.69 µM | > 100 µM | > 100 µM | > 100 µM | > 100 µM | > 100 µM | 33 µM | – | – | > 100 µM | – | – | – | – | – | – | – | – |
| O=[N+]([O-])c1ccc(Sc2ncccn2)c([N+](=O)[O-])c1 | 26.5 µM | 12.1 µM | 15 µM | 18.4 µM | 17.7 µM | 19.6 µM | 20 µM | 22.4 µM | 7.36 µM | 13 µM | 3.39 µM | 12.9 µM | 2.52 µM | 4.3 µM | 5.26 µM | 3.68 µM | 5.08 µM | 5.93 µM | 10.4 µM | 1.93 µM |
| ClC(=Nc1cccc2ccccc12)N(c1ccccc1)c1ccccc1 | 54.8 µM | > 100 µM | > 100 µM | > 100 µM | > 100 µM | – | > 100 µM | – | > 100 µM | – | – | > 100 µM | – | – | – | – | – | – | – | – |
| COc1cc[nH]c1/C=C1\C(=O)Nc2ccc(F)c(C#C[C@@H](O)[C@@H](N)[C@@H](C)O)c21 | 2.64 µM | 3.44 µM | 2.5 µM | 1.24 µM | 4.3 µM | 2.42 µM | 3.44 µM | 2.35 µM | 2.7 µM | 0.727 µM | 0.448 µM | 1.49 µM | 0.651 µM | 0.516 µM | 0.413 µM | 0.545 µM | 0.663 µM | 0.689 µM | 0.676 µM | 0.745 µM |
| COc1cc2c(cc1OC)C(=O)C(Br)CC2 (centres undefined) | 24.5 µM | > 100 µM | 3.34 µM | 7.1 µM | 13.7 µM | 15.7 µM | 28.4 µM | 3.19 µM | 6.77 µM | 11.5 µM | 3.72 µM | 12.1 µM | 3.96 µM | 1.74 µM | 2.72 µM | 3.13 µM | 4.36 µM | 14.3 µM | 1.7 µM | 2.38 µM |
| O=C1C=C[C@]2(C[C@@H](c3cccc(C(F)(F)F)c3)O[C@@H](c3cccc(C(F)(F)F)c3)O2)O1 | 3.18 µM | > 100 µM | 1.71 µM | 23.7 µM | 3.68 µM | 4.14 µM | 17.2 µM | 3.72 µM | 5.08 µM | 1.63 µM | 2.12 µM | 5.52 µM | 2.68 µM | 0.433 µM | 4.11 µM | 0.389 µM | 1.5 µM | 4.18 µM | 1.8 µM | 1.84 µM |
| O=C(c1cccs1)c1c(C(F)(F)F)n([O-])c2ccc(C(F)(F)F)cc2[n+]1=O | 1.28 µM | 1.21 µM | 0.127 µM | 1.87 µM | 0.787 µM | 0.355 µM | 1 µM | 0.914 µM | 0.318 µM | 0.647 µM | 0.19 µM | 0.364 µM | 0.251 µM | 0.0571 µM | 0.791 µM | 0.294 µM | 0.182 µM | 0.464 µM | 0.483 µM | 0.169 µM |
| CC12OC(C(=O)C13CC3)C1C(=O)c3ccccc3C(=O)C12 (centres undefined) | > 100 µM | > 100 µM | – | > 100 µM | 78.6 µM | 46.2 µM | – | – | > 100 µM | 36.3 µM | 48.7 µM | > 100 µM | 36.8 µM | – | 41 µM | 21.2 µM | 19.2 µM | – | – | 32.8 µM |
| COc1cc(-c2cc(C(=O)N3CCN(C(=O)c4ccccc4NCc4ccco4)CC3)nc3cc(-c4ccccc4)nn23)cc(OC)c1OC | > 100 µM | > 100 µM | > 100 µM | > 75.4 µM | > 100 µM | > 100 µM | > 93.1 µM | > 100 µM | > 100 µM | 7.56 µM | 1.56 µM | 10.7 µM | 1.95 µM | 4.01 µM | 2.9 µM | 0.92 µM | 4.38 µM | 1.59 µM | 1.46 µM | 3.71 µM |
| Cn1cc(-c2ccc(=O)n(Cc3cccc(-c4ncc(OCCN5CCOCC5)cn4)c3)n2)cn1 | > 100 µM | > 100 µM | > 100 µM | > 100 µM | > 100 µM | > 100 µM | > 100 µM | 59.1 µM | > 100 µM | > 100 µM | > 100 µM | > 100 µM | 99.3 µM | > 100 µM | 84.2 µM | 39.5 µM | > 100 µM | 0.49 µM | 19.6 µM | 64.8 µM |
| CC(=O)c1ccc(Nc2cc(-n3ccnc3)nc3ccccc23)cc1 | > 100 µM | 81.5 µM | – | 52 µM | > 100 µM | 67.7 µM | 9.53 µM | 53 µM | > 100 µM | > 100 µM | 60.7 µM | > 100 µM | 11.4 µM | – | 8.15 µM | 36 µM | 14.8 µM | 2.8 µM | 15.6 µM | 66.7 µM |
